# Literature values as cited in patent US7195778B2, “Drug delivery system for zero order, zero order-biphasic, ascending or descending drug delivery” (Teva Pharmaceutical Industries Ltd., priority 2001, dated 2007).
# Where a name gives a salt, the structure may show the parent alone. Read-outs that look alike come from different tables or passages of the source.
smiles,measurement,setting,value
COC(=O)C(c1ccccc1)C1CCCCN1 (stereo not shown) [methylphenidate HCl],drug excreted,adults,80%
same,drug excreted,children,67%
same,time to peak,"children, immediate release",1.9 h
same,"time to peak, range","children, immediate release",0.3 to 4.4 h
same,primary adverse events,chronic dosing,"nervousness, insomnia and appetite suppression"
same,pharmacokinetic half-life,immediate release,2 to 3 h
same,AD/HD patients responding positively,reports,70–90%
